Laboratory results as given in ChEMBL document CHEMBL5096146, “Porphyrin and phthalocyanine photosensitizers designed for targeted photodynamic therapy of colorectal cancer” (Bioorg Med Chem, 2021).
pIC50: −log10 of the molar value. In brackets after ≈: the same amount, converted by molar mass.

Assays:
HT-29 [1] = assay: Photodynamic cytotoxicity against human HT-29 cells assessed as reduction in cell viability incubated for 3 hrs followed by fresh medium replacement and subsequent blue LED irradiation measured after 24 hrs by MTT assay relative to control; format: functional
HT-29 [2] = assay: Antitumor activity against human HT-29 cells xenografted in BALB/c mouse assessed as tumor growth inhibition at 250 mg/kg, ip followed by LED irradiation with repeated compound irradiation for thrice upto 3 weeks relative to control; format: functional; conditions: HT-29, light or radiation study, 504 h, read-out: TGI
HT-29 [3] = assay: Photodynamic cytotoxicity against human HT-29 cells assessed as reduction in cell viability incubated for 3 hrs followed by fresh medium replacement and subsequent red LED irradiation measured after 24 hrs by MTT assay relative to control; format: functional
HT-29 [4] = assay: Photodynamic cytotoxicity against human HT-29 cells assessed as reduction in cell viability incubated for 3 hrs followed by fresh medium replacement and subsequent white LED irradiation measured after 24 hrs by MTT assay relative to control; format: functional
WiDr [5] = assay: Photocytotoxicity against human WiDr cells assessed as lethal dose incubated for 18 hrs followed by replacement of medium containing compound with 48 hrs incubation and subsequent light irradiation of 13.5 mW/cm2 at 435 nm measured after 48 hrs by MTT assay; format: functional; conditions: light or radiation study, read-out: LD50 (the source's name)
WiDr [6] = assay: Photodynamic cytotoxicity against human WiDr cells assessed as reduction in cell viability at 50 nM incubated for 24 hrs followed by compound washout and 7.5 mW/cm2 light irradiation measured after 24 hrs by MTT assay relative to control; format: functional
WiDr [7] = assay: Photodynamic cytotoxicity against human WiDr cells assessed as cell growth inhibition measured after 24 hrs of 10J light irradiation by flow cytometry; format: functional, cell-based; conditions: light or radiation study
WiDr [8] = assay: Photodynamic cytotoxicity against human WiDr cells assessed as cell growth inhibition measured after 72 hrs of 10J light irradiation by flow cytometry; format: functional, cell-based; conditions: light or radiation study
HT-29 [9] = assay: Photodynamic cytotoxicity against human HT-29 cells assessed as reduction in cell viability at 19.4 J/cm2 light irradiation followed by immediate fresh medium replacement measured after 24 hrs by MTT assay relative to control; format: functional
HT-29 [10] = assay: Photodynamic cytotoxicity against human HT-29 cells assessed as reduction in cell viability at 19.4 J/cm2 light irradiation >570 nm followed by immediate fresh medium replacement measured after 24 hrs by MTT assay relative to control; format: functional
HT-29 [11] = assay: Photocytotoxicity against human HT-29 cells assessed as lethal dose incubated for 4 hrs followed by 3 J/cm2 LED irradiation and subsequent compound replenishment measured after 20 hrs by MTT assay; format: functional

In the case of `C=CC1=C(C)c2cc3[nH]c(cc4nc(cc5[nH]c(cc1n2)c(C)c5C=C)C(C)=C4CCC(=O)O)c(CCC(=O)O)c3C`, the Activity (HT-29 [1]) was 40%, the inhibition in vivo at 250 mg/kg (HT-29 [2]) was 88% and the Activity (HT-29 [3]) was 20%. It also gave an Activity (HT-29 [4]) of 40%.
In the case of `C[N+](C)(C)c1ccc(-c2c3nc(c(-c4ccc([N+](C)(C)C)cc4)c4ccc([nH]4)c(-c4ccc([N+](C)(C)C)cc4)c4nc(c(-c5ccc([N+](C)(C)C)cc5)c5ccc2[nH]5)C=C4)C=C3)cc1`, the CC50 (WiDr [5]) was 2000 nM.
In the case of `O=S(=O)(O)c1ccc(-c2c3nc(c(-c4ccc(S(=O)(=O)O)cc4)c4ccc([nH]4)c(-c4ccc(S(=O)(=O)O)cc4)c4nc(c(-c5ccc(S(=O)(=O)O)cc5)c5ccc2[nH]5)C=C4)C=C3)cc1`, the CC50 (WiDr [5]) was 100000 nM.
Compound `O=C(O)c1ccc(-c2c3nc(c(-c4ccc(C(=O)O)cc4)c4ccc([nH]4)c(-c4ccc(C(=O)O)cc4)c4nc(c(-c5ccc(C(=O)O)cc5)c5ccc2[nH]5)C=C4)C=C3)cc1` has a CC50 (WiDr [5]) of 15000 nM.
`Oc1ccc(-c2c3nc(c(-c4ccc(O)cc4)c4ccc([nH]4)c(-c4ccc(O)cc4)c4nc(c(-c5ccc(O)cc5)c5ccc2[nH]5)C=C4)C=C3)cc1` showed a CC50 (WiDr [5]) of 200 nM.
`Oc1ccc(Br)c(-c2c3nc(cc4ccc([nH]4)c(-c4cc(O)ccc4Br)c4nc(cc5ccc2[nH]5)C=C4)C=C3)c1` showed an Activity (WiDr [6]) greater than 50%, a pIC50 (WiDr [7]) of 6.74 and a pIC50 (WiDr [8]) of 6.85.
Work on `Oc1ccc(Cl)c(-c2c3nc(cc4ccc([nH]4)c(-c4cc(O)ccc4Cl)c4nc(cc5ccc2[nH]5)C=C4)C=C3)c1` yielded an Activity (WiDr [6]) greater than 50%.
Compound `Oc1ccc(Br)c(-c2c3nc(c(-c4cc(O)ccc4Br)c4ccc([nH]4)c(-c4cc(O)ccc4Br)c4nc(c(-c5cc(O)ccc5Br)c5ccc2[nH]5)C=C4)C=C3)c1` has a pIC50 (WiDr [7]) of 6.33 and a pIC50 (WiDr [8]) of 6.21.
Work on `C1=Cc2nc1c(-c1ccc3ccccc3n1)c1ccc([nH]1)c(-c1ccc3ccccc3n1)c1nc(c(-c3ccc4ccccc4n3)c3ccc([nH]3)c2-c2ccc3ccccc3n2)C=C1` yielded an Activity (HT-29 [9]) of 80% and an Activity (HT-29 [10]) of 10%.
`Oc1cccc(-c2c3nc(cc4ccc([nH]4)c(-c4cccc(O)c4)c4nc(cc5ccc2[nH]5)C=C4)C=C3)c1` gave an Activity (WiDr [6]) greater than 50%.
Compound `Oc1cccc(-c2c3nc(cc4ccc([nH]4)c(-c4cccc(O)c4I)c4nc(cc5ccc2[nH]5)C=C4)C=C3)c1I` has an Activity (WiDr [6]) greater than 50%.
Work on `Oc1cc(-c2c3nc(cc4ccc([nH]4)c(-c4ccc(I)c(O)c4)c4nc(cc5ccc2[nH]5)C=C4)C=C3)ccc1I` yielded an Activity (WiDr [6]) greater than 50%.
`Oc1cccc(-c2c3nc(c(-c4cccc(O)c4)c4ccc([nH]4)c(-c4cccc(O)c4)c4nc(c(-c5cccc(O)c5)c5ccc2[nH]5)CC4)C=C3)c1` [TEMOPORFIN] showed an LD70 (HT-29 [11]) of 0.6 µg/mL and a CC50 (HT-29 [11]; Homo sapiens, HT-29, light or radiation study, read-out: LD50 (the source's name)) of 0.3 µg/mL (≈ 0.441 µM).
